Data on 1 substance can be found in patent publication US6841361B1, “Methods of producing recombinant insulin from novel fused proteins” (Itoham Foods Inc., priority 1999, dated 2005).

This experiment in a line: Plasma glucose level after subcutaneous injection of insulin in rabbits. The format is in vivo, Japanese Wister rabbit. To be noted: rabbit, 0.5 ml of 1 unit/ml. The procedure: For each insulin sample, an aliquot was taken from the fractions so that the insulin contents for both kinds of insulin calculated based on the main peak areas became same, and then dried.
The resulting solution (0.5 ml) was subcutaneously injected to the back of a Japanese Wister rabbit (Kbs:JW, […]). After the injection, blood was collected from the anterior auricular vein of the rabbit over a period of time. Each blood sample (0.45 ml) was added with a mix of glycolysis-inhibiting agents (NaF: 12.5 mg/ml, heparin-Na: 125 units/ml, EDTA-2Na: 48 mg/ml) ([…]]) and fully mixed. The mixed solution was centrifuged at 3,000 rpm for 15 min. at 5° C., and the supernatant was used as a plasma sample. For each plasma sample, the plasma glucose level was determined using a biochemical automated analyzer (CIBA-CORNING; Express PLUS), and the plasma insulin level was determined using EIA kit (Wako Pure Chemical Industries, Ltd.).

Take “Novolin: a commercially available insulin, Novolin 40, (Novo Nordisk Pharma); insulin fractions re-purified by HPLC before testing”: the “time course of the plasma glucose level after the injection of insulin” value (subcutaneous injection to the back, FIG. 9) is “showed the decrease in plasma glucose level”. In addition, the “plasma glucose level compared with ITOHAM insulin” value (subcutaneous, relative to ITOHAM insulin) was “slight lower plasma glucose level”.
